This is an account of results in US10689392B2, “Anti-cancer compounds targeting ral GTPases and methods of using the same” (The Regents of the University of Colorado, a body corporate, priority 2011, dated 2020).

Read-outs that look alike come from different tables or passages of the source.

The nature of series [1]: Pharmacokinetics in mice after intraperitoneal or oral administration. Format: in vivo. As to conditions: mouse, blood; for half-life: read-out: t½ (converted). As for the experimental part:
The pharmacokinetics of certain Ral-GTPase inhibiting compounds of the invention were evaluated in mice. Following intraperitoneal injection or oral administration, blood samples were collected over several hours and drug concentrations were evaluated by capillary coupled with Time of Flight (TOF) spectrometry.

In series [2] the test system is bladder cancer cell lines CRL2169, J82, KU7, MGHU4, LULU2, UMUC3. Briefly: Combination testing with MEK inhibitor AZD6244 in bladder cancer cell lines. The class given is cell-based, human. As to conditions: in conjunction with MEK inhibitor AZD6244, bladder cancer cell lines.
In series [3] the test system is lung cancer cell lines A549, H2009, H358, H460, SW1573. Briefly: Combination testing with MEK inhibitor AZD6244 in lung cancer cell lines. The class given is cell-based, human. To be noted: in conjunction with MEK inhibitor AZD6244, lung cancer cell lines.
For another series, the target named is T1, RalA (Homo sapiens, UniProt P11233).
T1 construct: Xenograft tumors were collected 2 h (RBC10) or 3 h (RBC8) after injection; from tissue; host or cells: H2122 human lung cancer xenograft tumours grown subcutaneously in female nude mice
T1 sequence (P11233 1-206): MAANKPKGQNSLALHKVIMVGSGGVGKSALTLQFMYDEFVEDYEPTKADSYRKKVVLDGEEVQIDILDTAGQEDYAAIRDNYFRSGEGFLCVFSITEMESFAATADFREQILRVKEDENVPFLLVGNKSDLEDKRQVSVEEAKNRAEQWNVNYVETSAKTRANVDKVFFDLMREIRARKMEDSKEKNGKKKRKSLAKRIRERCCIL
The experiment in a line: RalA activity in H2122 xenograft tumors, RalBP1 pull-down. To be noted: single IP dose 50 mg/Kg, tumors collected 2 h (RBC10) or 3 h (RBC8) after injection, FIG. 12A. Format: in vivo, mice. As for the experimental part:
(§1) Human lung cancer cell line H2122 was inoculated subcutaneously into female nude mice and allowed to grow until tumors reached an average size of 200 mm^3. Mice were given a single IP dose of 50 mg/Kg RBC8, RBC10, or DMSO control. Xenograft tumors were collected 2 h (RBC10) or 3 h (RBC8) after injection. RalA and RalB activity in tumors were measured by pull-down assay using RalBP1 agarose beads and normalized to total protein.

The target in the next series is T2, RalB (Homo sapiens, UniProt P11234).
T2 construct: Xenograft tumors were collected 2 h (RBC10) or 3 h (RBC8) after injection; from tissue; host or cells: H2122 human lung cancer xenograft tumours grown subcutaneously in female nude mice
T2 sequence (P11234 1-206): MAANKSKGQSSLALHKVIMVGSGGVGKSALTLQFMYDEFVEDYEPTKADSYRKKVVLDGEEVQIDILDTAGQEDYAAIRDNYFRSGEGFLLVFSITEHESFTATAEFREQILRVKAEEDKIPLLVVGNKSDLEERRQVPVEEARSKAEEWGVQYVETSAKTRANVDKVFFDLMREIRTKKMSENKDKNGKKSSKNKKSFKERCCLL
Briefly: RalB activity in H2122 xenograft tumors, RalBP1 pull-down. Format: in vivo, mice. As to conditions: single IP dose 50 mg/Kg, tumors collected 2 h (RBC10) or 3 h (RBC8) after injection, FIG. 12B. As for the experimental part:
as §1

Series [4] deals with MiaPaCa2 pancreatic cell line. To be noted: cited from earlier work.

With `CCCCC(=O)N1c2ccccc2NC2=C(C(=O)CCC2)C1c1ccccc1Cl` (stereo not drawn) [RBC10, 11-(2-chlorophenyl)-10-pentanoyl-2,3,4,5,10,11-hexahydro-1H-dibenzo[b,e][1,4]diazepin-1-one], in series [1] (intraperitoneal (IP)), the total exposure AUC(0-inf) was found to be 30500 ng·h/mL, the AUC(0-t) stood at 30300 ng·h/mL, the concentration peaked (Cmax) at 23.4 µM and the Tmax was determined as 1 h. Moreover, the half-life in series [1] (intraperitoneal (IP)) was 3.7 h. In series [1] (oral (PO)), the AUC(0-inf) amounted to 5220 ng·h/mL, the AUC(0-t) stood at 4750 ng·h/mL, the Cmax is 2.3 µM and the time to peak (Tmax) came to 1 h. Besides, in series [1] (oral (PO)), the half-life was 1.9 h. Moreover, the “efficacy of the combination with AZD6244” value in series [2] is “synergistic efficacy”. For the same compound, in series [3], the “efficacy of the combination with AZD6244” value is listed as “synergistic efficacy”. Besides, the “RalA activity in tumors” value on RalA is “inhibition of RalA”. Moreover, the “RalB activity in tumors” value at RalB was “inhibition of RalB”.
Take `COC(=O)[C@H](CC(C)C)NC(=O)N1CCN(Cc2nc[nH]c2C)C(=O)[C@@H]1Cc1ccccc1` [GGTI-2417]: the “in vitro growth and survival” value in series [4] is “inhibit the in vitro growth and survival”.

Usually AUC(0-inf) stands for the area under the concentration-time curve extrapolated to infinity. A low value points to less exposure. What is called AUC(0-t) is the area under the concentration-time curve up to a stated or last time point. Low values mean less exposure, high ones more exposure. By Cmax is commonly meant the peak of the concentration-time curve. The Tmax is the time from dosing to the highest level.
